In publication PMC11233000, “Characterization of BrGH3A, a bovine rumen-derived glycoside hydrolase family 3 β-glucosidase with a permuted domain arrangement” (PLOS ONE, 2024):

Columns and labels:
BrGH3A [1] = tested on: T1, BrGH3A; experiment: p-nitrophenol release, absorbance […] nm; assay type: biochemical, metagenome: bovine ruminal fluid; conditions: 0.1 M sodium citrate, pH 5.0, 40°C, 5 min
T1 construct: C-FnIII-N domain order is natural

BrGH3A [2] = tested on: T1, BrGH3A; experiment: glucose release, glucose oxidase/ABTS; assay type: biochemical, metagenome: bovine ruminal fluid; conditions: 0.1 M sodium citrate, pH 5.0, 40°C, 5 min
From the text: glucose release, glucose oxidase/ABTS on BrGH3A

[3] = released glucose divided by two

Row | Structure (SMILES) | Km (BrGH3A [1]) | other results
1 | OC[C@H]1O[C@@H](O[C@@H]2[C@@H](O)[C@H](O[C@H]3[C@H](O)[C@@H](CO)OC(O)[C@@H]3O)O[C@H](CO)[C@H]2O)[C@H](O)[C@@H](O)[C@@H]1O (some centres unmarked) [Laminaritriose] |  | Km (BrGH3A [2]; calculated as total released glucose): 5.4 ± 0.42 mM
2 | OC[C@H]1O[C@@H](O[C@H]2[C@H](O)[C@@H](CO)OC(O)[C@@H]2O)[C@H](O)[C@@H](O)[C@@H]1O (some centres unmarked) [Laminaribiose] |  | Km (BrGH3A [2]; [3]): 14.3 ± 1.3 mM
3 | OC[C@H]1O[C@@H](O[C@H]2[C@H](O)[C@@H](O)C(O)O[C@@H]2CO)[C@H](O)[C@@H](O)[C@@H]1O (some centres unmarked) [Cellobiose] |  | Km (BrGH3A [2]; [3]): 30 ± 3.9 mM

Continued, in another order:

Row | Km (BrGH3A [1]) | Structure (SMILES) | other results
4 | 9.95 ± 1.16 mM | O=[N+]([O-])c1ccc(O[C@@H]2OC[C@H](O)[C@H](O)[C@H]2O)cc1 [pNP-Ara, p-nitrophenyl-α-L-arabinopyranoside] | 
5 | 7.96 ± 0.64 mM | C[C@H]1O[C@@H](Oc2ccc([N+](=O)[O-])cc2)[C@H](O)[C@@H](O)[C@H]1O [pNP-Fuc, p-nitrophenyl-β-D-fucopyranoside] | 
6 | 0.6 ± 0.04 mM | O=[N+]([O-])c1ccc(O[C@@H]2O[C@H](CO)[C@@H](O)[C@H](O)[C@H]2O)cc1 [pNP-Glc, p-nitrophenyl-β-D-glucopyranoside] | 
7 | 2.12 ± 0.1 mM | O=[N+]([O-])c1ccc(O[C@@H]2OC[C@@H](O)[C@H](O)[C@H]2O)cc1 [pNP-Xyl, p-nitrophenyl-β-D-xylopyranoside] | 
8 | 7.55 ± 0.9 mM | O=[N+]([O-])c1ccc(O[C@@H]2O[C@H](CO)[C@H](O)[C@H](O)[C@H]2O)cc1 [pNP-Gal, p-nitrophenyl-β-D-galactopyranoside] | 
